Active and inactive are the calls of the source. No cut-off for these calls is given here.

For data set [1], the system named is Calf thymus DNA. The experiment in a line: Binding affinity to calf thymus DNA assessed as hyperchromicity at 30 uM incubated for 10 mins by UV-Vis absorption spectroscopic method relative to control. The class given is nucleic-acid assay. The note with it: Bos taurus.
Data set [2] has as its system Calf thymus DNA. As to the kind of experiment: Binding affinity to calf thymus DNA assessed as binding constant incubated for 10 mins by UV-Vis absorption spectroscopic method. The data set is classed as nucleic-acid assay. The settings on record: Bos taurus.
Data set [3] concerns Calf thymus DNA. As to the kind of experiment: Binding affinity to calf thymus DNA assessed as fold change in hypochromicity at 10 uM by fluorescence emission spectrum analysis relative to control. The data set is classed as nucleic-acid assay. The settings on record: Bos taurus.
Data set [4] relates to Calf thymus DNA. As to the kind of experiment: Binding affinity to calf thymus DNA assessed as DNA spectral changes at 30 uM incubated for 10 mins by circular dichroism method. The data set is classed as nucleic-acid assay. The settings on record: Bos taurus. Background: CD spectra are sensitive to the conformation of chiral molecules.
In data set [5] the test system is Salmon testes DNA. The experiment in a line: Binding affinity to salmon sperm […] DNA assessed as DNA intercalation by measuring increase in viscosity at 12 to 60 uM by viscometric method. The data set is classed as nucleic-acid assay. The note with it: Salmonidae.
The target in data set [6] is T1, Albumin (Bos taurus, UniProt P02769). The experiment in a line: Binding affinity to bovine serum albumin assessed as hyperchromicity at 5 to 40 uM incubated for 10 mins by UV-Vis absorption spectroscopic method relative to control. The data set is classed as ADME. The settings on record: cattle, isolated protein.
Data set [7] addresses T1, Albumin. The experiment in a line: Binding affinity to bovine serum albumin assessed as binding constant incubated for 10 mins by UV-Vis absorption spectroscopic method. The class given is ADME. The note with it: cattle, isolated protein.
The target in data set [8] is T1, Albumin. As to the kind of experiment: Binding affinity to bovine serum albumin assessed as hypochromicity at 5 to 40 uM by fluorescence emission spectrum analysis method relative to control. The data set is classed as ADME. The settings on record: cattle, isolated protein.
Data set [9] has as its target T1, Albumin. As to the kind of experiment: Binding affinity to bovine serum albumin assessed as Stem-Volmer quenching constant incubated for 10 mins by fluorescence emission spectrum analysis. The data set is classed as ADME. The settings on record: cattle, isolated protein.
Data set [10] in a line: Cytotoxicity against mouse RAW264.7 cells assessed as reduction in cell viability incubated for 48 hrs by MTT assay. The class given is cell-based. On the technique in general: Formazan colour is commonly taken as a measure of viable cells.
Data set [11] has as its system MCF7. The experiment in a line: Cytotoxicity against human MCF7 cells assessed as reduction in cell viability incubated for 48 hrs by MTT assay. The note with it: MCF7, 48 h. The class given is functional, cell-based.
The subject of data set [12] is T47D. As to the kind of experiment: Cytotoxicity against human T47D cells assessed as reduction in cell viability incubated for 48 hrs by MTT assay. The data set is classed as functional, cell-based.
Data set [13] can be described thus: Selectivity index, ratio of CC50 for mouse RAW264.7 cells to ratio of IC50 for human MCF7 cells. The settings on record: RAW264.7 cells and MCF7 cells, read-out: Ratio CC50/IC50. The class given is toxicity.
Data set [14] can be described thus: Selectivity index, ratio of CC50 for mouse RAW264.7 cells to ratio of IC50 for human T47D cells. The class given is toxicity. The settings on record: RAW264.7 cells and T47D cells, read-out: Ratio CC50/IC50.
Data set [15] addresses DNA topoisomerase 2-alpha (Homo sapiens) (UniProt P11388). The experiment in a line: Inhibition of recombinant human topoisomerase 2alpha using supercoiled pUC19 plasmid DNA as substrate at 10 uM incubated for 45 mins by ethidium bromide dye based agarose gel electrophoresis method.
For data set [16], the target named is T1, Albumin. As to the kind of experiment: Binding affinity to bovine serum albumin assessed as hypsochromic shift at 5 to 40 uM by fluorescence emission spectrum analysis method. The data set is classed as ADME. The settings on record: cattle, isolated protein.
The test system of data set [17] is Calf thymus DNA. The experiment in a line: Binding affinity to calf thymus DNA assessed as hypochromicity at 30 uM incubated for 10 mins by UV-Vis absorption spectroscopic method relative to control. The note with it: Bos taurus. The class given is nucleic-acid assay.
For data set [18], the system named is Calf thymus DNA. The experiment in a line: Binding affinity to calf thymus DNA assessed as hypsochromic shift at 10 uM by fluorescence emission spectrum analysis. The class given is nucleic-acid assay. The note with it: Bos taurus.
Data set [19] relates to Calf thymus DNA. The experiment in a line: Binding affinity to calf thymus DNA assessed as hypsochromic shift at 30 uM incubated for 10 mins by UV-Vis absorption spectroscopic method. The data set is classed as nucleic-acid assay. The note with it: Bos taurus.

T1 sequence (P02769 whole entry): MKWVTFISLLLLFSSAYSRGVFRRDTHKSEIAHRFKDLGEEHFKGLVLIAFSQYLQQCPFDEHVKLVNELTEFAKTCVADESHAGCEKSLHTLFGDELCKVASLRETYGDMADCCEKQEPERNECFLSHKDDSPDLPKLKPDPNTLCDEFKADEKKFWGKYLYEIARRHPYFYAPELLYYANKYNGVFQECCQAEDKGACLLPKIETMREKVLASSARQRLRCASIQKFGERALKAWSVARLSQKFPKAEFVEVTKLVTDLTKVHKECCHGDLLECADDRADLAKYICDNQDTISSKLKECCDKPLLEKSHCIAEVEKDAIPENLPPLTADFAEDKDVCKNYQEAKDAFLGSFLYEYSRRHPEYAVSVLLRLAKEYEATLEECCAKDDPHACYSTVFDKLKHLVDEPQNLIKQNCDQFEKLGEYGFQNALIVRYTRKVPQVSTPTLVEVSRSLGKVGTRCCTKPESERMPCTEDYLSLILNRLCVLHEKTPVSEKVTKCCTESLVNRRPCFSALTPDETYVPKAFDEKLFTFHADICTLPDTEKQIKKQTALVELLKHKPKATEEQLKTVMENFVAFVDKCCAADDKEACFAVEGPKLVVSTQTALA
Sequence of DNA topoisomerase 2-alpha (Homo sapiens) (P11388 whole entry): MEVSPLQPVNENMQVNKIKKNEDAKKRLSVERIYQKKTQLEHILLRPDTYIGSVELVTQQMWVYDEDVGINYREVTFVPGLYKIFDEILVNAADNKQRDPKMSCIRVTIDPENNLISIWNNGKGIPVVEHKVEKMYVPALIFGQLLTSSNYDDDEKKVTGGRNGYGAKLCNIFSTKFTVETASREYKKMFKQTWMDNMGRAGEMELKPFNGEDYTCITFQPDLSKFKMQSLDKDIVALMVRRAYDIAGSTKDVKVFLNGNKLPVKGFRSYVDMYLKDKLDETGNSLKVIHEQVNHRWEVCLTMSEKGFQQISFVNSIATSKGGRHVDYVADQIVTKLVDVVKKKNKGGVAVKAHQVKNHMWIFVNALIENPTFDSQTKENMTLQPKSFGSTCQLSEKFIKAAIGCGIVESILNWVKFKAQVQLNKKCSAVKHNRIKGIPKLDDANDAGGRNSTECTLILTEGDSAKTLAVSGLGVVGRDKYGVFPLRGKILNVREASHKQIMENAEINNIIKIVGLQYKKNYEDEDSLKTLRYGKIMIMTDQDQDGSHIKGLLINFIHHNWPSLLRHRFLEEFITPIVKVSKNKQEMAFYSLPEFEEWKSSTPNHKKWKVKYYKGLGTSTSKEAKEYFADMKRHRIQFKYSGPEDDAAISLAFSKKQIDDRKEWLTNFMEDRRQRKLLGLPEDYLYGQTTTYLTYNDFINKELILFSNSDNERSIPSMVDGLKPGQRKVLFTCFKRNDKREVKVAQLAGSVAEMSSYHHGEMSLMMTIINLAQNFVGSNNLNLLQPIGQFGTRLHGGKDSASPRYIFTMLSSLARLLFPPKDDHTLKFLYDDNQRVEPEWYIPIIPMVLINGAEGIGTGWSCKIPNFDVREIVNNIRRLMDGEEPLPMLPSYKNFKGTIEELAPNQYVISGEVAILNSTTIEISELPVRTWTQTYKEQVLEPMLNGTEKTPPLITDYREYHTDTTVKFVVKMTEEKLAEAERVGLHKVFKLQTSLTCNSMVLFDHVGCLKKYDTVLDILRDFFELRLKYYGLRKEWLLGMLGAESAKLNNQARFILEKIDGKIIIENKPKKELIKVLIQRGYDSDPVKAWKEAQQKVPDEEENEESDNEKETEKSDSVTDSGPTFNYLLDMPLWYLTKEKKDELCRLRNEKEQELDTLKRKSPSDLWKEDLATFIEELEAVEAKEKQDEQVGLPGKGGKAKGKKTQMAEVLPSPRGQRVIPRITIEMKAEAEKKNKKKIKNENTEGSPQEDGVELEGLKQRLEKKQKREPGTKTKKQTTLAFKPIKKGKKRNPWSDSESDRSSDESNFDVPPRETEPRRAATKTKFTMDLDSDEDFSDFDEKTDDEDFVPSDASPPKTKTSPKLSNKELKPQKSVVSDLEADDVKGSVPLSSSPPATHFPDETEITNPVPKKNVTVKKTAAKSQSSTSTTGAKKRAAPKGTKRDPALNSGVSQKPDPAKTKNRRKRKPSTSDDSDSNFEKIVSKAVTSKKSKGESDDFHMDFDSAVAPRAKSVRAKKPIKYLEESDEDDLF

On to `Fc1ccc(NC(=S)N/N=C\c2ccnc3ccccc23)cc1`, for which the Activity in data set [1] is 15.9%; in data set [6], 38.74%; in data set [8], 237.42%; in [16], “Active”. Moreover, the Kb was 2.37 ×10⁵ /M in data set [2] and 8.4 ×10⁴ /M in data set [7]. In addition, the fold change (FC) in data set [3] amounted to 3.44. Further, the result in data set [4] and in data set [5] was Active. Also, in data set [9], the KSV is 5.9 ×10⁴ /M. Moreover, the CC50 (as a rule, the concentration that lowers cell viability or growth by half) at 48 h in [10] was 45900 nM. Besides, the IC50 (usually the point on the concentration scale where inhibition reaches its midpoint) in data set [11] is 1100 nM; in data set [12], 1070 nM. In addition, the selectivity ratio in data set [13] worked out at 41.7; in data set [14] it was 42.9. Also, the inhibition entry in data set [15] is “Active”.

`CNC(=O)c1cccc2c(Nc3ccc(NS(C)(=O)=O)cc3OC)c3cccc(C)c3nc12` [ASULACRINE]: the CC50 at 48 h in data set [10] amounted to 31200 nM.

For `S=C(N/N=C\c1ccnc2ccccc12)Nc1ccc(Cl)cc1`, the Activity was 8.51% in data set [17], 53.34% in data set [6], 68.97% in [8] and “Active” in data set [16]. Further, the Kb in data set [2] came out at 6.29 ×10⁴ /M; in data set [7], 1.13 ×10⁵ /M. Further, the fold change (FC) in data set [3] was found to be 1.88. For the same compound, the result in data set [4], in data set [5], in data set [18] and in data set [19] was Active. Besides, in data set [9], the KSV was found to be 6.07 ×10⁴ /M. Moreover, in data set [10], the CC50 at 48 h is 63500 nM. The IC50 in [11] is 1070 nM; in data set [12], 1270 nM. In addition, the selectivity ratio in data set [13] amounted to 59.3; in [14], 50. In addition, in data set [15], the inhibition entry is “Active”.

Regarding `S=C(N/N=C\c1ccnc2ccccc12)Nc1ccc(Br)cc1`, the Activity in [17] is 10.8%; in [6], 56.43%; in data set [8], 508.17%; in data set [16], “Active”. The Kb in data set [2] was 7.44 ×10⁴ /M; in data set [7], 1.17 ×10⁵ /M. In addition, the fold change (FC) in data set [3] was 6.06. Moreover, the outcome in data set [4], in data set [5] and in data set [19] was Active. For the same compound, the KSV in data set [9] was found to be 11.2 ×10⁴ /M. Also, the CC50 at 48 h in data set [10] is 53500 nM. Besides, the IC50 amounted to 990 nM in data set [11] and 1480 nM in [12]. The selectivity ratio came to 54.1 in [13] and 36.2 in data set [14]. Also, the inhibition entry in [15] was “Active”.

For `O=[N+]([O-])c1ccc(NC(=S)N/N=C\c2ccnc3ccccc23)cc1`, the Activity was 12.9% in data set [17], 43.48% in data set [6], 132.77% in data set [8] and “Active” in data set [16]. The Kb worked out at 2.51 ×10⁴ /M in [2] and 1.03 ×10⁵ /M in data set [7]. Moreover, in [3], the fold change (FC) is 7.69. The outcome in data set [4], in data set [5] and in [19] was Active. In data set [9], the KSV is recorded as 3.82 ×10⁴ /M. For the same compound, the CC50 at 48 h in data set [10] turned out to be 82500 nM. In addition, the IC50 came to 810 nM in data set [11] and 1330 nM in [12]. The selectivity ratio in data set [13] came to 102; in [14], 62. In addition, in [15], the inhibition entry is “inactive”.

Regarding `COc1ccc(NC(=S)N/N=C\c2ccnc3ccccc23)cc1`, the Activity is 59.6% in data set [1], 42.61% in data set [6], 320.04% in [8] and “Active” in data set [16]. For the same compound, the Kb in data set [2] was determined as 1.33 ×10⁵ /M; in [7] it was 5.44 ×10⁴ /M. In addition, the fold change (FC) in data set [3] worked out at 11.6. Further, the outcome in data set [4], in [5], in data set [18] and in data set [19] was Active. Besides, the KSV in [9] is recorded as 9.24 ×10⁴ /M. Also, the half-maximal cytotoxic concentration (CC50) at 48 h in data set [10] was found to be 101000 nM. In addition, the results for the IC50 in data set [11] and in data set [12] were 990 nM and 1360 nM, respectively. Further, the selectivity ratio in data set [13] turned out to be 102; in [14], 74.6. Also, the inhibition entry in data set [15] is “Active”.

For the compound `COc1cc(NS(C)(=O)=O)ccc1Nc1c2ccccc2nc2ccccc12` [AMSACRINE], in data set [5], the outcome was Active. The CC50 at 48 h in [10] was 95500 nM. Further, the IC50 came to 910 nM in data set [11] and 940 nM in [12]. Further, the selectivity ratio turned out to be 105 in data set [13] and 102 in [14]. Besides, the inhibition result in data set [15] was “Active”.

With `S=C(N/N=C\c1ccnc2ccccc12)Nc1ccccc1`, the Activity in data set [17] was 52.3%; in data set [6] it was 52.75%; in data set [8] it was 33.65%; in data set [16], “Active”. For the same compound, the Kb stood at 3.5 ×10⁴ /M in data set [2] and 7.29 ×10⁴ /M in data set [7]. Also, the fold change (FC) in data set [3] was 3.72. Also, the outcome in data set [4], in data set [5] and in data set [18] was Active. Further, the KSV in data set [9] was 11.19 ×10⁴ /M. In addition, the CC50 at 48 h in data set [10] turned out to be 118000 nM. Moreover, the IC50 was 1070 nM in data set [11] and 1380 nM in data set [12]. Further, the selectivity ratio was determined as 110 in [13] and 85.5 in [14]. In data set [15], the inhibition result is “Active”.

`S=C(NCCc1ccccc1)N/N=C\c1ccnc2ccccc12`: the Activity in [17] was 27.4%; in data set [6], 62.54%; in [8] it was 157.14%; in [16], “Active”. The Kb stood at 2.42 ×10⁴ /M in data set [2] and 1.08 ×10⁵ /M in [7]. Also, in [3], the fold change (FC) was 5.53. Also, the outcome in data set [4] and in data set [5] was Active. For the same compound, the KSV in data set [9] is recorded as 4.09 ×10⁴ /M. In addition, the CC50 at 48 h in data set [10] was 33000 nM. For the same compound, the IC50 in data set [11] is 1090 nM; in data set [12], 1120 nM. The selectivity ratio in data set [13] stood at 30.2; in data set [14], 29.4. The inhibition entry in data set [15] was “inactive”.

As for `S=C(N/N=C\c1ccnc2ccccc12)Nc1cccc2ccccc12`, the Activity was 13.9% in data set [1], 53.34% in data set [6], 226.14% in [8] and “Active” in data set [16]. The Kb was found to be 2.54 ×10⁵ /M in data set [2] and 1.13 ×10⁵ /M in [7]. Moreover, the fold change (FC) in data set [3] was 1.67. The outcome in data set [4] and in data set [5] was Active. The KSV in [9] was 6.36 ×10⁴ /M. The CC50 at 48 h in [10] turned out to be 22600 nM. Besides, the IC50 was found to be 880 nM in [11] and 1210 nM in data set [12]. Also, the selectivity ratio was found to be 25.6 in data set [13] and 18.6 in [14]. For the same compound, the inhibition result in data set [15] is “Active”.

These data come from ChEMBL document CHEMBL4406827, “Novel 4-quinoline-thiosemicarbazone derivatives: Synthesis, antiproliferative activity, in vitro and in silico biomacromolecule interaction studies and topoisomerase inhibition” (Eur J Med Chem, 2019).
